Data published in US8993574B2, “Pyrrole antifungal agents” (F2G Ltd, priority 2008, dated 2015).
In brackets after ≈: the same amount, converted by molar mass.

Tests used:
Type in all cases: cell-based
Aspergillus terreus AT49 [1] = experiment: MIC, RPMI medium; conditions: for MIC grade, A. terreus 49: MIC banded into grades; for MIC: Aspergillus terreus, AT49, MIC banded into grades, read-out: MIC grade, A. terreus 49
In short: (§1)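 OD485-based endpoint after 24-48 h/35° C; MIC = lowest concentration, >80% inhibition relative to drug-free. RPMI/2% glucose/0.135 M MOPS pH 7.0; 1−2×10^4 cfu/mL; range 50-0.05 mg/L.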

Candida parapsilosis = experiment: MIC, RPMI medium; conditions: 24-48 h at 35° C., >80% growth inhibition, banded into grades; for MIC: Lodderomyces parapsilosis
In short: as §1

[2] = test system: Aspergillus fumigatus AF210; experiment: MIC, RPMI medium; conditions: for MIC grade, A. fumigatus 210: MIC banded into grades; for MIC: Aspergillus fumigatus, AF210, MIC banded into grades, read-out: MIC grade, A. fumigatus 210
In short: as §1

Aspergillus flavus [3] = experiment: MIC, RPMI medium; conditions: MIC banded into grades; for MIC: Aspergillus flavus, read-out: MIC grade, A. flavus
In short: as §1

Candida glabrata = experiment: MIC, RPMI medium; conditions: 24-48 h at 35° C., >80% growth inhibition, banded into grades; for MIC: Nakaseomyces glabratus
In short: as §1

Aspergillus terreus AT4 [4] = experiment: MIC, RPMI medium; conditions: for MIC grade, A. terreus: MIC banded into grades; for MIC: Aspergillus terreus, AT4, MIC banded into grades, read-out: MIC grade, A. terreus
In short: as §1

Candida krusei = experiment: MIC, RPMI medium; conditions: 24-48 h at 35° C., >80% growth inhibition, banded into grades; for MIC: Pichia kudriavzevii
In short: as §1

Candida albicans = experiment: MIC, RPMI medium; conditions: 24-48 h at 35° C., >80% growth inhibition, banded into grades; for MIC: Candida albicans
In short: as §1

Aspergillus niger [5] = experiment: MIC, RPMI medium; conditions: MIC banded into grades; for MIC: Aspergillus niger, read-out: MIC grade, A. niger
In short: as §1

[6] = test system: Aspergillus fumigatus AF293; experiment: MIC, RPMI medium; conditions: for MIC grade, A. fumigatus: MIC banded into grades; for MIC: Aspergillus fumigatus, AF293, MIC banded into grades, read-out: MIC grade, A. fumigatus
In short: as §1

Candida tropicalis = experiment: MIC, RPMI medium; conditions: 24-48 h at 35° C., >80% growth inhibition, banded into grades; for MIC: Candida tropicalis
In short: as §1

Aspergillus terreus AT49 [7] = experiment: MIC, YAG medium; conditions: 24 h at 35° C, MIC banded into grades; for MIC: Aspergillus terreus, read-out: MIC grade, A. terreus 49
In short: (§2)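 Endpoint is growth at OD 485 nm after 24 h at 35° C, with MIC defined as the lowest drug level giving >70% inhibition relative to untreated wells and recorded in mg/L. Tests ran in YAG broth with 1−2×10^4 cfu/mL spore inocula from Sabouraud-grown cultures. Drug ranges were 50-0.05 mg/L, repeated at 0.5-0.0005 mg/L when needed.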

[8] = test system: Aspergillus fumigatus AF210; experiment: MIC, YAG medium; conditions: 24 h at 35° C, MIC banded into grades; for MIC: Aspergillus fumigatus, read-out: MIC grade, A. fumigatus 210
In short: as §2

Aspergillus flavus [9] = experiment: MIC, YAG medium; conditions: 24 h at 35° C, MIC banded into grades; for MIC: Aspergillus flavus, 24 h, read-out: MIC grade, A. flavus
In short: as §2

Aspergillus terreus AT4 [10] = experiment: MIC, YAG medium; conditions: 24 h at 35° C, MIC banded into grades; for MIC: Aspergillus terreus, read-out: MIC grade, A. terreus
In short: as §2

Aspergillus niger [11] = experiment: MIC, YAG medium; conditions: 24 h at 35° C, MIC banded into grades; for MIC: Aspergillus niger, read-out: MIC grade, A. niger
In short: as §2

[12] = test system: Aspergillus fumigatus AF293; experiment: MIC, YAG medium; conditions: 24 h at 35° C, MIC banded into grades; for MIC: Aspergillus fumigatus, read-out: MIC grade, A. fumigatus
In short: as §2

SMILES	MIC (Aspergillus terreus AT49 [1]) [µg/mL]	MIC (Candida parapsilosis) [µg/mL]	MIC [2] [µg/mL]	MIC (Aspergillus flavus [3]) [µg/mL]	MIC (Candida glabrata) [µg/mL]	MIC (Aspergillus terreus AT4 [4]) [µg/mL]	MIC (Candida krusei) [µg/mL]	MIC (Candida albicans) [µg/mL]	MIC (Aspergillus niger [5]) [µg/mL]	MIC [6] [µg/mL]	MIC (Candida tropicalis) [µg/mL]	MIC (Aspergillus terreus AT49 [7]) [µg/mL]	MIC [8] [µg/mL]	MIC (Aspergillus flavus [9]) [µg/mL]	MIC (Aspergillus terreus AT4 [10]) [µg/mL]	MIC (Aspergillus niger [11]) [µg/mL]	MIC [12] [µg/mL]	MIC grade, A. terreus 49 (Aspergillus terreus AT49 [1])	Candida MIC, C. parapsilosis (Candida parapsilosis)	MIC grade, A. fumigatus 210 [2]	further results
COC(=O)Cn1ccc(CC(C)C)c1C(=O)C(=O)Nc1ccc(N2CCN(c3cc(C)cc(C)n3)CC2)cc1 [Example 89, (2-{4-[4-(4,6-Dimethyl-pyridin-2-yl)-piperazin-1-yl]-phenylaminooxalyl}-3-isobutyl-pyrrol-1-yl)-acetic acid methyl ester]																		1 (a grade of 1 represents an MIC of greater than 10 mg/L)	3 (A grade of 3 represents an MIC of less than 1 mg/L)	2 (A grade of 2 represents an MIC of from 1 to 10 mg/L)	MIC grade, A. flavus (Aspergillus flavus [3]): 1 (a grade of 1 represents an MIC of greater than 10 mg/L); Candida MIC, C. glabrata (Candida glabrata): 3 (A grade of 3 represents an MIC of less than 1 mg/L); MIC grade, A. terreus (Aspergillus terreus AT4 [4]): 1 (a grade of 1 represents an MIC of greater than 10 mg/L); Candida MIC, C. krusei (Candida krusei): 3 (A grade of 3 represents an MIC of less than 1 mg/L); Candida MIC, C. albicans (Candida albicans): 2 (A grade of 2 represents an MIC of from 1 to 10 mg/L); MIC grade, A. niger (Aspergillus niger [5]): 2 (A grade of 2 represents an MIC of from 1 to 10 mg/L); MIC grade, A. fumigatus [6]: 2 (A grade of 2 represents an MIC of from 1 to 10 mg/L); Candida MIC, C. tropicalis (Candida tropicalis): 3 (A grade of 3 represents an MIC of less than 1 mg/L); MIC grade, A. terreus 49 (Aspergillus terreus AT49 [7]): 2 (A grade of 2 represents an MIC of from 1 to 10 mg/L); MIC grade, A. fumigatus 210 [8]: 3 (A grade of 3 represents an MIC of less than 1 mg/L); MIC grade, A. flavus (Aspergillus flavus [9]): 1 (a grade of 1 represents an MIC of greater than 10 mg/L); MIC grade, A. terreus (Aspergillus terreus AT4 [10]): 2 (A grade of 2 represents an MIC of from 1 to 10 mg/L); MIC grade, A. niger (Aspergillus niger [11]): 2 (A grade of 2 represents an MIC of from 1 to 10 mg/L); MIC grade, A. fumigatus [12]: 3 (A grade of 3 represents an MIC of less than 1 mg/L)
COCCn1c(C)cc(-c2ccccc2)c1C(=O)C(=O)Nc1ccc(N2CCN(c3ccc(CN4CCOCC4)cn3)CC2)cc1 [Example 103, 2-[1-(2-Methoxy-ethyl)-5-methyl-3-pheny-1H-pyrrol-2-yl]-N-{4-[4-(5-morpholin-4-ylmethyl-pyridin-2-yl)-piperazin-1-yl]-phenyl}-2-oxo-acetamide]																		2 (A grade of 2 represents an MIC of from 1 to 10 mg/L)	3 (A grade of 3 represents an MIC of less than 1 mg/L)	2 (A grade of 2 represents an MIC of from 1 to 10 mg/L)	MIC grade, A. flavus (Aspergillus flavus [3]): 1 (a grade of 1 represents an MIC of greater than 10 mg/L); Candida MIC, C. glabrata (Candida glabrata): 3 (A grade of 3 represents an MIC of less than 1 mg/L); MIC grade, A. terreus (Aspergillus terreus AT4 [4]): 2 (A grade of 2 represents an MIC of from 1 to 10 mg/L); Candida MIC, C. krusei (Candida krusei): 3 (A grade of 3 represents an MIC of less than 1 mg/L); Candida MIC, C. albicans (Candida albicans): 3 (A grade of 3 represents an MIC of less than 1 mg/L); MIC grade, A. niger (Aspergillus niger [5]): 3 (A grade of 3 represents an MIC of less than 1 mg/L); MIC grade, A. fumigatus [6]: 2 (A grade of 2 represents an MIC of from 1 to 10 mg/L); Candida MIC, C. tropicalis (Candida tropicalis): 3 (A grade of 3 represents an MIC of less than 1 mg/L); MIC grade, A. terreus 49 (Aspergillus terreus AT49 [7]): 2 (A grade of 2 represents an MIC of from 1 to 10 mg/L); MIC grade, A. fumigatus 210 [8]: 3 (A grade of 3 represents an MIC of less than 1 mg/L); MIC grade, A. flavus (Aspergillus flavus [9]): 1 (a grade of 1 represents an MIC of greater than 10 mg/L); MIC grade, A. terreus (Aspergillus terreus AT4 [10]): 2 (A grade of 2 represents an MIC of from 1 to 10 mg/L); MIC grade, A. niger (Aspergillus niger [11]): 1 (a grade of 1 represents an MIC of greater than 10 mg/L); MIC grade, A. fumigatus [12]: 3 (A grade of 3 represents an MIC of less than 1 mg/L)
Cc1cc(C)nc(N2CCN(c3ccc(NC(=O)C(=O)c4c(-c5cccs5)cc(C)n4C)cc3)CC2)c1 [Example 13, N-{4-[4-(4,6-Dimethyl-pyridin-2-yl)-piperazin-1-yl]-phenyl}-2-(1,5-dimethyl-3-thiophen-2-yl-1H-pyrrol-2-yl)-2-oxo-acetamide]	< 1	< 1	< 1	< 1	< 1	< 1	< 1	< 1	< 1	< 1	< 1	< 1	< 1	< 1	< 1	< 1	< 1				
COCCn1ccc(-c2ccc(Cl)cc2)c1C(=O)C(=O)Nc1ccc(N2CCN(c3cc(C)cc(C)n3)CC2)cc1 [Example 59, 2-[3-(4-Chloro-phenyl)-1-(2-methoxy-ethyl)-1H-pyrrol-2-yl]-N-{4-[4-(4,6-dimethyl-pyridin-2-yl)-piperazin-1-yl]-phenyl}-2-oxo-acetamide]	> 10	< 1	1 to 10 (≈ 1.75 to 17.5 µM)	> 10	< 1	> 10	1 to 10 (≈ 1.75 to 17.5 µM)	< 1	> 10	1 to 10 (≈ 1.75 to 17.5 µM)	< 1	1 to 10 (≈ 1.75 to 17.5 µM)	1 to 10 (≈ 1.75 to 17.5 µM)	> 10	1 to 10 (≈ 1.75 to 17.5 µM)	> 10	1 to 10 (≈ 1.75 to 17.5 µM)				

The next lines start with results.

MIC (Aspergillus terreus AT49 [1]) [µg/mL]	MIC (Candida parapsilosis) [µg/mL]	MIC [2] [µg/mL]	MIC (Aspergillus flavus [3]) [µg/mL]	MIC (Candida glabrata) [µg/mL]	MIC (Aspergillus terreus AT4 [4]) [µg/mL]	MIC (Candida krusei) [µg/mL]	MIC (Candida albicans) [µg/mL]	MIC (Aspergillus niger [5]) [µg/mL]	MIC [6] [µg/mL]	MIC (Candida tropicalis) [µg/mL]	MIC (Aspergillus terreus AT49 [7]) [µg/mL]	MIC [8] [µg/mL]	MIC (Aspergillus flavus [9]) [µg/mL]	MIC (Aspergillus terreus AT4 [10]) [µg/mL]	MIC (Aspergillus niger [11]) [µg/mL]	MIC [12] [µg/mL]	SMILES	MIC grade, A. terreus 49 (Aspergillus terreus AT49 [1])	Candida MIC, C. parapsilosis (Candida parapsilosis)	MIC grade, A. fumigatus 210 [2]	further results
> 10	< 1	> 10	> 10	< 1	> 10	1 to 10 (≈ 1.93 to 19.3 µM)	< 1	> 10	> 10	< 1	1 to 10 (≈ 1.93 to 19.3 µM)	> 10	> 10	1 to 10 (≈ 1.93 to 19.3 µM)	> 10	1 to 10 (≈ 1.93 to 19.3 µM)	COCCn1ccc(CC(C)C)c1C(=O)C(=O)Nc1ccc(N2CCN(c3cc(C)cc(C)n3)CC2)cc1 [Example 68, N-{4-[4-(4,6-Dimethyl-pyridin-2-yl)-piperazin-1-yl]-phenyl}-2-[3-isobutyl-1-(2-methoxy-ethyl)-1H-pyrrol-2-yl]-2-oxo-acetamide]				
1 to 10 (≈ 1.87 to 18.7 µM)	< 1	< 1	1 to 10 (≈ 1.87 to 18.7 µM)	< 1	< 1	< 1	< 1	< 1	1 to 10 (≈ 1.87 to 18.7 µM)	< 1	< 1	< 1	< 1	< 1	< 1	< 1	COCCn1c(C)cc(-c2ccccc2)c1C(=O)C(=O)Nc1ccc(N2CCN(CC(C)(C)C)CC2)cc1F [Example 113, N-{4-[4-(2,2-Dimethyl-propyl)-piperazin-1-yl]-2-fluoro-phenyl}-2-[1-(2-methoxy-ethyl)-5-methyl-3-phenyl-1H-pyrrol-2-yl]-2-oxo-acetamide]				
